Results from article PMC11954145, “Antimicrobial and ADME properties of methoxylated, methylated and nitrated 2-hydroxynaphthalene-1 carboxanilides” (ADMET & DMPK, 2025).
In brackets after ≈: the same amount, converted by molar mass. Where two headings read alike, the source gives them in different places.

Assays:
[1] = Lipophilicity determination by RP-HPLC (log k, log D); assay type: physicochemical; conditions: for log D6.5: RP-HPLC C18, MeOH 72 % / acetate-buffered saline pH 6.5; for log D7.4: RP-HPLC C18, MeOH 72 % / acetate-buffered saline pH 7.4; for log k (logarithm of the capacity factor): RP-HPLC C18, MeOH 72 % / water 28 %
Source text: An HPLC system Agilent 1200 equipped with a DAD detector (Agilent, Santa Clara, CA, USA) was used. A chromatographic column Symmetry® C18 5 μm, 4.6×250 mm, part No. WAT054275 (Waters Corp., Milford, MA, USA) was used. The HPLC separation process was monitored and evaluated with EZChrom Elite software ver. 3.3.2 (Agilent). Isocratic elution by a mixture of MeOH p.a. (72 %) and H2O-HPLC Mili-Q grade (28 %) as a mobile phase was used for the determination of capacity factor k. Isocratic elution by a mixture of MeOH p.a. (72 %) and acetate-buffered saline (pH 7.4 and pH 6.5) (28 %) as a mobile phase was used for the determination of distribution coefficients expressed as D7.4 and D6.5. The total flow of the column was 1.0 mL min^-1, the injection volume was 20 μL, the column temperature was 40 °C, and the sample temperature was 10 °C. The detection wavelength of 210 nm was chosen. A KI methanolic solution was used to determine the dead times (tD). Retention times (tR) were measured in minutes. The capacity factors k were calculated according to the formula k = (tR–tD)/tD, where tR is the retention time of the solute, and tD is the dead time obtained using an unretained analyte. The distribution coefficients DpH were calculated according to the formula DpH = (tR–tD)/tD. Each experiment was repeated three times.
The capacity factor and distribution coefficients were measured by RP-HPLC on a C18 column with methanol as an organic modifier of the mobile phase. In addition to the experimental lipophilicities, predicted log P values were also calculated using ACD/Percepta, see Table 1. […] The values of σ(Ar) are found in a wide range from 0.01 to 1.36, so the compounds contain substituents with both electron-donating and slightly electron-withdrawing properties.

S. aureus ATCC 29213 = test: Antibacterial screening, broth microdilution MIC; assay type: cell-based; conditions: Staphylococcus aureus, read-out: MIC S. aureus
MRSA 63718 = test: Antibacterial screening, broth microdilution MIC; assay type: cell-based, methicillin-resistant S. aureus; conditions: Staphylococcus aureus, clinical isolate, 24 h at 37 °C, read-out: MIC MRSA 63718
MRSA SA 630 = test: Antibacterial screening, broth microdilution MIC; assay type: cell-based, methicillin-resistant S. aureus; conditions: Staphylococcus aureus, read-out: MIC MRSA SA 630
MRSA SA 3202 = test: Antibacterial screening, broth microdilution MIC; assay type: cell-based, methicillin-resistant S. aureus; conditions: Staphylococcus aureus, read-out: MIC MRSA SA 3202
[2] = system: Enterococcus faecalis ATCC 29212; test: Antibacterial screening, broth microdilution MIC; assay type: cell-based; conditions: read-out: MIC E. faecalis
VRE 342B = test: Antibacterial screening, broth microdilution MIC; assay type: cell-based, vancomycin-resistant E. faecalis; conditions: Enterococcus, vanA isolate, 24 h at 37 °C, read-out: MIC VRE 342B
VRE 725B = test: Antibacterial screening, broth microdilution MIC; assay type: cell-based, vancomycin-resistant E. faecalis; conditions: Enterococcus, vanA isolate, 24 h at 37 °C, read-out: MIC VRE 725B
VRE 368 = test: Antibacterial screening, broth microdilution MIC; assay type: cell-based, vancomycin-resistant E. faecalis; conditions: Enterococcus, vanA isolate, 24 h at 37 °C, read-out: MIC VRE 368
E. coli ATCC 25922 = test: Antibacterial screening, broth microdilution MIC; assay type: cell-based; conditions: Escherichia coli, ATCC25922; ATCC 25922, 24 h at 37 °C
[3] = system: Mycobacterium tuberculosis ATCC 25177/H37Ra; test: Antimycobacterial screening, broth dilution MIC (Alamar blue); assay type: cell-based; conditions: 336 h, H37Ra, 14 days at 37 °C, Alamar blue, read-out: MIC M. tuberculosis
Protocol: The evaluation of in vitro antimycobacterial activity of the compounds was performed against Mycobacterium tuberculosis ATCC 25177/H37Ra, Mycobacterium kansasii DSM 44162 and Mycobacterium smegmatis ATCC 700084.
The broth dilution micro-method in Middlebrook 7H9 medium (Difco, Lawrence, KS, USA) supplemented with ADC Enrichment (Difco) was used to determine the minimum inhibitory concentration (MIC) as previously described. […] The final concentrations of the evaluated compounds, ranging from 256 to 0.125 μg mL^-1, were obtained by twofold serial dilution of the stock solution in a microtiter plate with a sterile medium. Bacterial inocula were prepared by transferring colonies from culture to sterile water. The plate was inoculated by tested microorganisms. The final concentration of bacterial cells was 1.5×10^6 for M. tuberculosis and 10^5 cells in a microtiter plate for other mycobacteria. Isoniazid and rifampicin (Sigma) were used as reference antimycobacterial drugs. Drug-free controls, sterility controls, and controls consisting of medium and DMSO alone were included. The plates were incubated for a defined time at an appropriate temperature (3 days at 37 °C for M. smegmatis, and 14 days at 37 °C for M. tuberculosis and M. kansasii). […] The MICs against M. tuberculosis were evaluated by Alamar blue (Oxoid). After incubation, 10 % of Alamar blue was added to each well, and the plate was incubated for 24 h. The MIC values were assessed as the lowest concentration of the tested compounds, which prevented changing blue resazurin to pink resorufin. The experiments were repeated three times. The minimum inhibitory concentrations (MICs) were defined as the lowest concentration of the compound at which no visible bacterial growth was observed. The MIC value is routinely and widely used in bacterial assays and is a standard detection limit according to the CLSI [60].

[4] = system: Mycobacterium kansasii DSM 44162; test: Antimycobacterial screening, broth dilution MIC; assay type: cell-based; conditions: DSM44162, 336 h, read-out: MIC M. kansasii
[5] = system: Mycobacterium smegmatis ATCC 700084; test: Antimycobacterial screening, broth dilution MIC; assay type: cell-based; conditions: Mycolicibacterium smegmatis, ATCC700084, 72 h, read-out: MIC M. smegmatis
[6] = ATCC29212, ATCC 29212, 24 h at 37 °C
[7] = ATCC29213, ATCC 29213, 24 h at 37 °C
[8] = clinical isolate, 24 h at 37 °C

SMILES | log D6.5 [1] | log D7.4 [1] | log k (logarithm of the capacity factor) [1] | MIC (MRSA 63718) [µM] | MIC [2, 6] [µM] | MIC (VRE 342B) [µM] | MIC (VRE 725B) [µM] | MIC (VRE 368) [µM] | MIC (E. coli ATCC 25922) [µM] | MIC [3] [µM] | MIC ([4]; DSM 44162, 14 days at 37 °C) [µM] | MIC ([5]; ATCC 700084, 3 days at 37 °C) [µM] | MIC (S. aureus ATCC 29213; [7]) [µM] | MIC (MRSA SA 630; [8]) [µM] | MIC (MRSA SA 3202; [8]) [µM] | MIC [4] [µM] | further results
Cc1cccc(C)c1NC(=O)c1c(O)ccc2ccccc12 [Compound 12, N-(2,6-Dimethylphenyl)-2-hydroxynaphthalene-1-carboxamide] | 0.0838 | 0.0923 | 0.0785 | 879 (≈ 256 µg/mL) | 879 (≈ 256 µg/mL) | 879 (≈ 256 µg/mL) | 879 (≈ 256 µg/mL) | 879 (≈ 256 µg/mL) | 879 (≈ 256 µg/mL) | 439 (≈ 128 µg/mL) | 879 (≈ 256 µg/mL) | 879 (≈ 256 µg/mL) |  |  |  |  | MIC (S. aureus ATCC 29213; ATCC29213, 24 h): 439 µM (≈ 128 µg/mL); MIC (MRSA SA 630; 24 h): 439 µM (≈ 128 µg/mL); MIC (MRSA SA 3202; 24 h): 439 µM (≈ 128 µg/mL)
Cc1cc(C)c(NC(=O)c2c(O)ccc3ccccc23)c(C)c1 [Compound 14, 2-Hydroxy-N-(2,4,6-trimethylphenyl)naphthalene-1-carboxamide] | 0.2629 | 0.2691 | 0.2539 | 838 (≈ 256 µg/mL) | 838 (≈ 256 µg/mL) | 838 (≈ 256 µg/mL) | 838 (≈ 256 µg/mL) | 838 (≈ 256 µg/mL) | 838 (≈ 256 µg/mL) | 210 (≈ 64.1 µg/mL) | 838 (≈ 256 µg/mL) | 210 (≈ 64.1 µg/mL) | 838 (≈ 256 µg/mL) | 838 (≈ 256 µg/mL) | 419 (≈ 128 µg/mL) |  | 
COc1ccc(C)cc1NC(=O)c1c(O)ccc2ccccc12 [Compound 15, 2-Hydroxy-N-(2-methoxy-5-methylphenyl)naphthalene-1-carboxamide] | 0.4974 | 0.5012 | 0.4932 | 833 (≈ 256 µg/mL) | 833 (≈ 256 µg/mL) | 833 (≈ 256 µg/mL) | 833 (≈ 256 µg/mL) | 833 (≈ 256 µg/mL) | 833 (≈ 256 µg/mL) | 416 (≈ 128 µg/mL) |  | 833 (≈ 256 µg/mL) | 833 (≈ 256 µg/mL) | 833 (≈ 256 µg/mL) | 833 (≈ 256 µg/mL) | 833 (≈ 256 µg/mL) | 
COc1cccc(C)c1NC(=O)c1c(O)ccc2ccccc12 [Compound 16, 2-Hydroxy-N-(2-methoxy-6-methylphenyl)naphthalene-1-carboxamide] | 0.0284 | 0.0382 | 0.0124 | 833 (≈ 256 µg/mL) |  | 208 (≈ 63.9 µg/mL) | 833 (≈ 256 µg/mL) | 208 (≈ 63.9 µg/mL) | 833 (≈ 256 µg/mL) | 416 (≈ 128 µg/mL) |  |  | 833 (≈ 256 µg/mL) | 833 (≈ 256 µg/mL) | 833 (≈ 256 µg/mL) | 833 (≈ 256 µg/mL) | MIC ([2]; ATCC29212, 24 h): 416 µM (≈ 128 µg/mL); MIC [5]: 416 µM (≈ 128 µg/mL)
